From ChEMBL document CHEMBL3856255, “Synthesis and biological evaluation of Hederacolchiside A1 derivatives as anticancer agents” (Bioorg Med Chem Lett, 2016)

Tests used:
[1] = Cytotoxicity against human HCT116 cells assessed as reduction in cell viability after 48 hrs by MTT assay; type: functional, cell-based; conditions: HCT-116, 48 h
[2] = Cytotoxicity against human SGC7901 cells assessed as reduction in cell viability after 48 hrs by MTT assay; type: functional, cell-based; conditions: SGC-7901, 48 h
[3] = Cytotoxicity against human SMMC7721 cells assessed as reduction in cell viability after 48 hrs by MTT assay; type: functional, cell-based; conditions: SMMC-7721, 48 h
[4] = Cytotoxicity against human NCI-H460 cells assessed as reduction in cell viability after 48 hrs by MTT assay; type: functional, cell-based; conditions: NCI-H460, 48 h
[5] = test system: Mus musculus; assay: Toxicity in mouse assessed as death time administered as submicron emulsions through caudal vein injection dosed daily; type: organism-based; conditions: in vivo, iv
[6] = Cytotoxicity against human SKOV3 cells assessed as reduction in cell viability after 48 hrs by MTT assay; type: functional, cell-based; conditions: SK-OV-3, 48 h
[7] = Cytotoxicity against human U251 cells assessed as reduction in cell viability after 48 hrs by MTT assay; type: functional, cell-based; conditions: U-251, 48 h
[8] = Cytotoxicity against human HCT116 cells assessed as reduction in cell viability after 24 hrs by MTT assay; type: functional, cell-based; conditions: HCT-116, 24 h
[9] = Cytotoxicity against human SMMC7721 cells assessed as reduction in cell viability after 24 hrs by MTT assay; type: functional, cell-based; conditions: SMMC-7721, 24 h
[10] = Cytotoxicity against human U251 cells assessed as reduction in cell viability after 24 hrs by MTT assay; type: functional, cell-based; conditions: U-251, 24 h
[11] = Cytotoxicity against human NCI-H460 cells assessed as reduction in cell viability after 24 hrs by MTT assay; type: functional, cell-based; conditions: NCI-H460, 24 h
[12] = Antitumor activity against H22 cells xenografted in nude mouse assessed as tumor growth inhibition at 6 mg/kg administered as submicron emulsions through caudal vein injection dosed every 3 days for 14 days; type: functional; conditions: read-out: TGI
[13] = Cytotoxicity against human SKOV3 cells assessed as reduction in cell viability after 24 hrs by MTT assay; type: functional, cell-based; conditions: SK-OV-3, 24 h
[14] = test system: Mus musculus; assay: Toxicity in nude mouse xenografted with […] cells assessed as body weight level at 6 mg/kg administered as submicron emulsions through caudal vein injection dosed every 3 days for 14 days (reference value: 42.63 +/- 5.81 g); type: organism-based; conditions: in vivo, iv
[15] = Cytotoxicity against human SGC7901 cells assessed as reduction in cell viability after 24 hrs by MTT assay; type: functional, cell-based; conditions: SGC-7901, 24 h
[16] = Toxicity in mouse assessed as tolerance dose administered as submicron emulsions through caudal vein injection dosed daily for 7 days; type: organism-based; conditions: in vivo, iv, read-out: Activity
[17] = test system: Mus musculus; assay: Toxicity in nude mouse xenografted with […] cells assessed as body weight level at 10 mg/kg administered as submicron emulsions through caudal vein injection dosed daily for 14 days (reference value: 42.63 +/- 5.81 g); type: organism-based; conditions: in vivo, iv, 336 h
[18] = test system: Mus musculus; assay: Toxicity in nude mouse xenografted with […] cells assessed as induction of mouse mortality at 10 mg/kg administered as submicron emulsions through caudal vein injection dosed daily for 14 days; type: organism-based; conditions: in vivo, iv, 336 h
[19] = Antitumor activity against H22 cells xenografted in nude mouse assessed as tumor growth inhibition at 10 mg/kg administered as submicron emulsions through caudal vein injection dosed daily for 14 days; type: functional; conditions: H22, 336 h; read-out: TGI
[20] = test system: Mus musculus; assay: Toxicity in nude mouse xenografted with […] cells assessed as body weight level at 20 mg/kg administered as submicron emulsions through caudal vein injection dosed daily for 14 days (reference value: 42.63 +/- 5.81 g); type: organism-based; conditions: in vivo, iv, 336 h
[21] = Antitumor activity against H22 cells xenografted in nude mouse assessed as tumor growth inhibition at 20 mg/kg administered as submicron emulsions through caudal vein injection dosed daily for 14 days; type: functional; conditions: H22, 336 h; read-out: TGI
[22] = test system: Mus musculus; assay: Toxicity in nude mouse xenografted with […] cells assessed as induction of mouse mortality at 20 mg/kg administered as submicron emulsions through caudal vein injection dosed daily for 14 days; type: organism-based; conditions: in vivo, iv, 336 h

Structure (SMILES)	IC50 [1]	IC50 [2]	IC50 [3]	IC50 [4]	Time [5]	IC50 [6]	IC50 [7]	also measured
C[C@@H]1O[C@@H](O[C@H]2[C@H](O[C@H]3CC[C@]4(C)[C@H]5CC=C6[C@@H]7CC(C)(C)CC[C@]7(C(=O)OCC(=O)O)CC[C@@]6(C)[C@]5(C)CC[C@H]4C3(C)C)OC[C@H](O[C@@H]3O[C@H](CO)[C@@H](O)[C@H](O)[C@H]3O)[C@@H]2O)[C@H](O)[C@H](O)[C@H]1O	3.9 µM	3.3 µM	2.2 µM	1.8 µM	7 days	2.7 µM	2 µM	
C[C@@H]1O[C@@H](O[C@H]2[C@H](O[C@H]3CC[C@]4(C)[C@H]5CC=C6[C@@H]7CC(C)(C)CC[C@]7(C(=O)OCCCC(=O)O)CC[C@@]6(C)[C@]5(C)CC[C@H]4C3(C)C)OC[C@H](O[C@@H]3O[C@H](CO)[C@@H](O)[C@H](O)[C@H]3O)[C@@H]2O)[C@H](O)[C@H](O)[C@H]1O	20.2 µM	7.4 µM	8.3 µM	14.1 µM		9.6 µM	11.7 µM	
C[C@@H]1O[C@@H](O[C@H]2[C@H](O[C@H]3CC[C@]4(C)[C@H]5CC=C6[C@@H]7CC(C)(C)CC[C@]7(C(=O)O)CC[C@@]6(C)[C@]5(C)CC[C@H]4C3(C)C)OC[C@H](O[C@@H]3O[C@H](CO)[C@@H](O)[C@H](O)[C@H]3O)[C@@H]2O)[C@H](O)[C@H](O)[C@H]1O [HEDERACOLCHISIDE A1]	8.4 µM	1.7 µM	2.8 µM	3.7 µM	< 0.042 days	3.3 µM	2.2 µM	IC50 [8]: 8.4 µM; IC50 [9]: 2.8 µM; IC50 [10]: 2.2 µM; IC50 [11]: 3.7 µM; inhibition in vivo at 6 mg/kg [12]: 47.5%; IC50 [13]: 1.3 µM; Activity [14]: 41.76 g; IC50 [15]: 1.7 µM; MTD at 168 h [16]: < 8 mg/kg
CCCOC(=O)[C@]12CCC(C)(C)C[C@H]1C1=CC[C@@H]3[C@@]4(C)CC[C@H](O[C@@H]5OC[C@H](O[C@@H]6O[C@H](CO)[C@@H](O)[C@H](O)[C@H]6O)[C@H](O)[C@H]5O[C@@H]5O[C@@H](C)[C@H](O)[C@@H](O)[C@H]5O)C(C)(C)[C@@H]4CC[C@@]3(C)[C@]1(C)CC2	9.7 µM	11.9 µM	4.7 µM	8.3 µM		12.3 µM	1.8 µM	
C[C@@H]1O[C@@H](O[C@H]2[C@H](O[C@H]3CC[C@]4(C)[C@H]5CC=C6[C@@H]7CC(C)(C)CC[C@]7(C(=O)OCCO)CC[C@@]6(C)[C@]5(C)CC[C@H]4C3(C)C)OC[C@H](O[C@@H]3O[C@H](CO)[C@@H](O)[C@H](O)[C@H]3O)[C@@H]2O)[C@H](O)[C@H](O)[C@H]1O	25.6 µM	20.6 µM	35.6 µM	46.7 µM		19.7 µM	13.4 µM	
CCOC(=O)[C@]12CCC(C)(C)C[C@H]1C1=CC[C@@H]3[C@@]4(C)CC[C@H](O[C@@H]5OC[C@H](O[C@@H]6O[C@H](CO)[C@@H](O)[C@H](O)[C@H]6O)[C@H](O)[C@H]5O[C@@H]5O[C@@H](C)[C@H](O)[C@@H](O)[C@H]5O)C(C)(C)[C@@H]4CC[C@@]3(C)[C@]1(C)CC2	5.3 µM	4.9 µM	3.5 µM	2.7 µM		5.8 µM	1.6 µM	
C[C@@H]1O[C@@H](O[C@H]2[C@H](O[C@H]3CC[C@]4(C)[C@H]5CC=C6[C@@H]7CC(C)(C)CC[C@]7(C(=O)OCCC(=O)O)CC[C@@]6(C)[C@]5(C)CC[C@H]4C3(C)C)OC[C@H](O[C@@H]3O[C@H](CO)[C@@H](O)[C@H](O)[C@H]3O)[C@@H]2O)[C@H](O)[C@H](O)[C@H]1O	11.1 µM	6.5 µM	2.7 µM	9.8 µM		5.4 µM	4.6 µM	
COC(=O)[C@]12CCC(C)(C)C[C@H]1C1=CC[C@@H]3[C@@]4(C)CC[C@H](O[C@@H]5OC[C@H](O[C@@H]6O[C@H](CO)[C@@H](O)[C@H](O)[C@H]6O)[C@H](O)[C@H]5O[C@@H]5O[C@@H](C)[C@H](O)[C@@H](O)[C@H]5O)C(C)(C)[C@@H]4CC[C@@]3(C)[C@]1(C)CC2	4.6 µM	1.7 µM	3.5 µM	1.3 µM	> 7 days	3.1 µM	1.1 µM	Activity [17]: 41.05 g; Activity [18]: Non-Toxic; inhibition in vivo at 10 mg/kg [19]: 36.2%; Activity [20]: 39.74 g; inhibition in vivo at 20 mg/kg [21]: 46.8%; Activity [22]: Non-Toxic
C[C@@H]1O[C@@H](O[C@H]2[C@H](O[C@H]3CC[C@]4(C)[C@H]5CC=C6[C@@H]7CC(C)(C)CC[C@]7(C(=O)OCCCO)CC[C@@]6(C)[C@]5(C)CC[C@H]4C3(C)C)OC[C@H](O[C@@H]3O[C@H](CO)[C@@H](O)[C@H](O)[C@H]3O)[C@@H]2O)[C@H](O)[C@H](O)[C@H]1O	39.2 µM	47.3 µM	> 100 µM	55.7 µM		> 100 µM	43.5 µM	
CNC(=O)[C@]12CCC(C)(C)C[C@H]1C1=CC[C@@H]3[C@@]4(C)CC[C@H](O[C@@H]5OC[C@H](O[C@@H]6O[C@H](CO)[C@@H](O)[C@H](O)[C@H]6O)[C@H](O)[C@H]5O[C@@H]5O[C@@H](C)[C@H](O)[C@@H](O)[C@H]5O)C(C)(C)[C@@H]4CC[C@@]3(C)[C@]1(C)CC2	41.9 µM	55.8 µM	> 100 µM	> 100 µM		> 100 µM	46.7 µM	
